Laboratory results from US11278526B2, “Compounds and methods for treating lupus” (RECEPTOS LLC, priority 2016, dated 2022).
Entries after “also recorded” stand apart in the source; their conditions may differ.

Legend:
Assay type in all cases: in vivo
NZBWF1 mice [1] = experiment: Spleen weight at 42 weeks
Method: To determine the effects of compound 148 on inflammatory infiltrate in the spleen, spleens were weighed at 42 weeks. […] Splenocyte suspensions were then prepared. RBCs were lysed and splenocytes were counted.
To determine the effects of compound 5 on inflammatory infiltrate in the spleen, spleens were weighed at 42 weeks. […] The 3 mg/kg dose of compound 5 trended lower indicating fewer inflammatory infiltrates in this organ. Splenocyte suspensions were prepared for all three doses. RBCs were lysed and splenocytes were counted.

anti-dsDNA antibodies = experiment: Serum anti-dsDNA antibody titers by ELISA; conditions: NZBWF1 mice
Method: Serum anti-dsDNA antibody titers are used as an indicator of SLE state (see, e.g., Kavanaugh et al., “Guidelines for Clinical Use of the Antinuclear Antibody Test and Tests for Specific Autoantibodies to Nuclear Antigens”, Archives of Pathology & Laboratory Medicine, 124:1, 71-81 (2000)) in most (although not all) patient populations, (see, Isenberg et al., Rheumatology 46:1052-1056, 2007). Titers were measured at 23, 31, 36.5, and 42 weeks. ELISA was performed using an anti-dsDNA ELISA kit (Shibayagi Co., Ltd., cat. no. RSHAKRDD061) following manufacturer's protocol. Results were expressed as optical density (OD) and as arbitrary units per mL. The ELISA standard curve was generated from a pool of sera from mice used a previous study with a known high concentration of anti-dsDNA antibodies. The highest concentration used in the standard curve was 1:100 of that pooled sera. All test samples were diluted 1000-fold for testing. Data was analyzed using http://www.elisaanalysis.com.
As in Example 8, serum anti-dsDNA antibody titers were measured at 22, 30, 36, and 42 weeks. ELISA was performed using an anti-dsDNA ELISA kit.

NZBWF1 mice [2] = experiment: Kidney weight at termination (42 weeks)
Source text: In SLE, inflammatory infiltrates known as Tertiary Lymphatic Tissue (TLT) accumulate in the kidney and spleen, among other tissues. As an indirect measure of disease progression, right and left kidneys were weighed (FIGS. 4A-4B) following termination at 42 weeks.
(§1) As in Example 5, left kidneys were weighed (FIG. 43) following termination at 42 weeks.

NZBWF1 mice [3] = experiment: Kidney lesion histology scoring (glomerular, tubular and interstitial lesions); conditions: for Tubular and interstitial lesions: 0.3, 1.0, 3.0 mg/kg PO QD
Source text: Kidney lesions are another indicator of SLE progression. Kidney slides from test mice were stained with H&E and PAS, to evaluate interstitial infiltrates, tubular atrophy, and interstitial fibrosis (collectively, “tubular and interstitial lesions”), mesangial expansion, endocapillary and extracapillary proliferation, glomerular deposits, (collectively, “glomerular lesions”). Each lesion subtype was scored using a 4 point scale: 0=not present, 1=mild, 2=moderate and 3=severe. Average scores were calculated by multiplying the incidence of each grade by the value of the grade for each of the seven lesions and then adding the scores for the group. Thus, an incidence of 3 animals for grade 3 of a lesion equals a score of 9. The scores were then divided by the number of animals scored in the group.
All slides were scored blind by assigning a random number to each animal and then affixing a temporary label with the random number to the slides. Scores were recorded using Graham StarTox software, version 3.1.0. The StarTox software has a setting that limits the screen display to the random number only, without group or animal number information for use while reading the slides.
as §1

NZBWF1 mice [4] = experiment: Proteinuria scores (urine dip sticks) in NZBWF1 SLE mouse model; conditions: for Proteinuria scores relative to vehicle: 3.0 mg/kg PO QD; for Proteinuria scores compared to vehicle: 0.3, 1.0 and 3.0 mg/kg PO QD
Source text: Six groups of NZBWF1 mice (Jackson Laboratories, stock #100008) were used in the study and were acclimated to the research facility for 7 weeks prior to the start of the study. Weekly measurements of proteinuria (excess serum proteins present in the urine) and body weight began at 20 weeks of age. At 23 weeks of age, the mice were assigned to groups in a balanced manner in order to achieve average body weight and average proteinuria measurements across the groups. One “naive” group consisting of 10 mice was euthanized at the start of treatment and used as a source of tissue for analysis. Treatment began at 23 weeks of age.
The three groups dosed with compound 148 received 0.3, 1.0, and 3.0 mg/kg PO QD, respectively (20 mice per dosage). Surviving animals were sacrificed at 42 weeks. […] Disease development was evaluated as disclosed in the following examples.
High levels of proteinuria are a strong indicator of SLE. […] Proteinuria was expressed as a score from 0 to 4 (0=no protein; 1=traces of protein (<30 mg/dL); 2=30-100 mg/dL; 3=100-500 mg/dL; 4=>500 mg/dL).
As in Example 3, proteinuria was measured weekly beginning at 20 weeks using urine dip sticks (Roche Diagnostics Chemstrip 2GP, cat. no. 11895397160, per manufacturer's protocol). Proteinuria was expressed as a score from 0 to 4 (0=no protein; 1=traces of protein (<30 mg/dL); 2=30-100 mg/dL; 3=100-500 mg/dL; 4=>500 mg/dL). […] (In this and the following experiments, the number of mice per group was approximately 20, and statistics were determined by one-way ANOVA with Dunnett's comparison.)

NZBWF1 mice [5] = experiment: Serum blood urea nitrogen (BUN) at termination
Method: Lymphocyte counts were measured from whole blood taken at 23, 31, and 36.5 weeks using flow cytometry. Cells were gated for CD4+ T cells, CD8+ T cells, and CD19+ B cells. […] Serum blood urea nitrogen (BUN) was also measured at termination to assess kidney function.
As in Example 4, serum blood urea nitrogen (BUN) was measured at termination to assess kidney function.

CC(C)Oc1ccc(-c2nc(-c3cccc4c3CC[C@@H]4N)no2)cc1C#N [compound 148, (S)-5-(3-(1-amino-2,3-dihydro-1H-inden-4-yl)-1,2,4-oxadiazol-5-yl)-2-isopropoxy-benzonitrile]
Spleen weight relative to vehicle (NZBWF1 mice [1]; all groups 0.3, 1.0, 3.0 mg/kg PO QD): significantly lower
Serum anti-dsDNA antibody titers (anti-dsDNA antibodies; all three dosages 0.3, 1.0, 3.0 mg/kg PO QD, ELISA optical density): decreased antibody titers at week 29; also recorded: decrease was not sustained over the course of the study
Kidney weight relative to vehicle (NZBWF1 mice [2]; 3.0 mg/kg PO QD, p<0.05): significantly reduced kidney weight relative to vehicle
Glomerular lesion score (NZBWF1 mice [3]; 0.3 mg/kg PO QD (compound 148 study)): glomerular lesion score similar to that of the vehicle control
Severity of glomerular lesions (NZBWF1 mice [3]; 1.0 mg/kg and 3.0 mg/kg PO QD (compound 148 study)): dose-independent decrease in the severity of glomerular lesions
Tubular and interstitial lesions (NZBWF1 mice [3]; p<0.05 (compound 148 study)): dose-dependent decrease in tubular and interstitial lesions; also recorded: not statistically different from treatment with cyclophosphamide
Combined kidney lesion score (glomerular plus tubular and interstitial) vs vehicle (NZBWF1 mice [3]; all three treatment groups 0.3, 1.0, 3.0 mg/kg PO QD): dose-related decrease in combined kidney lesion score
Proteinuria scores relative to vehicle (NZBWF1 mice [4]; weeks 23-42, p<0.05, 3 mg/kg): significant improvement relative to vehicle; also recorded: efficacy similar to cyclophosphamide
Proteinuria scores compared to vehicle (NZBWF1 mice [4]; weeks 23-42): lower proteinuria scores in a dose-dependent fashion
Serum BUN at termination vs vehicle (NZBWF1 mice [5]; 3 mg/kg PO QD, p<0.05): significant reduction in serum BUN

CC(C)Oc1ccc(-c2nc(-c3cccc4c3CC[C@@H]4NCCO)no2)cc1C#N [compound 5, (S)-5-(3-(1-(2-hydroxyethylamino)-2,3-dihydro-1H-inden-4-yl)-1,2,4-oxadiazol-5-yl)-2-isopropoxy benzonitrile]
Spleen weight relative to vehicle (NZBWF1 mice [1]; 3 mg/kg PO QD): trended lower
Spleen weight relative to vehicle (NZBWF1 mice [1]; any dose 0.3, 1.0, 3.0 mg/kg PO QD): lower, but not significant relative to vehicle
Serum anti-dsDNA antibody titers (anti-dsDNA antibodies; 3 mg/kg PO QD, week 42, less than cyclophosphamide): decreased antibody titers at week 42
Left kidney weight relative to vehicle (NZBWF1 mice [2]; 1.0 and 3.0 mg/kg PO QD): significantly reduced kidney weight relative to vehicle
Glomerular lesion score (NZBWF1 mice [3]; 0.3 mg/kg PO QD (compound 5 study)): glomerular lesion score less than to that of the vehicle control, but not significant
Severity of glomerular lesions (NZBWF1 mice [3]; 1.0 mg/kg and 3.0 mg/kg PO QD (compound 5 study)): dose-independent decrease in the severity of glomerular lesions
Tubular and interstitial lesions compared to cyclophosphamide (NZBWF1 mice [3]; 3.0 mg/kg PO QD (compound 5 study)): not statistically different from treatment with cyclophosphamide
Tubular and interstitial lesions (NZBWF1 mice [3]; significant at 1.0 and 3.0 mg/kg (compound 5 study)): dose-dependent decrease in tubular and interstitial lesions
Proteinuria scores relative to vehicle (NZBWF1 mice [4]; weeks 22-42): significant improvement relative to vehicle
Proteinuria scores compared to vehicle (NZBWF1 mice [4]; weeks 22-42): lower proteinuria scores in a dose-dependent fashion
Serum BUN at termination vs vehicle (NZBWF1 mice [5]; all doses 0.3, 1.0, 3.0 mg/kg PO QD): significant reduction in serum BUN
